Consider one molecule from ChEMBL document CHEMBL1151928, “Identification of Hsp70 modulators through modeling of the substrate binding domain” (Bioorg Med Chem Lett, 2009).

Test [1] concerns Hsp70 Ssa1p. The test can be described thus: Activation of yeast Hsp70 Ssa1p ATP hydrolysis activity at 300 uM in presence of ALLLSAPRR peptide. As to conditions: Saccharomyces cerevisiae.
Test [2] relates to Hsp70 Ssa1p. The test can be described thus: Activation of yeast Hsp70 Ssa1p ATP hydrolysis activity at 300 uM. The conditions noted are these: Saccharomyces cerevisiae.

SMILES strings stand for the structures. The source made the active and inactive calls. The calls are words filed in the database; no cut-off is given here.

As to `CCOCCCN(C(C)=O)[C@@H](CC(C)C)C(=O)N[C@@H](CC(C)C)C(=O)NCCN1CCOCC1`, the result in test [1] and in test [2] was Active.
